Laboratory results from patent US11583570B2, “Use of autoinducer-related pathway in inducing apoptosis and anti-infective therapy” (TSINGHUA UNIVERSITY, priority 2017, dated 2023).

Columns and labels:
[1] = test system: 3OC12 HSL-induced cytotoxicity; assay: Caspase inhibitors against 3OC12 HSL cytotoxicity; format: cell-based; conditions: in comparison with 3OC12 HSL treatment alone
Method: (§1) Cell apoptosis was detected with Annexin V/PI apoptosis detection Kit. Briefly, cells were stimulated with HSLs or left untreated. 6 hrs later, cells were collected and stained with Annexin VFITC and PI for 15 min at RT, then the apoptotic effect was measured by flow cytometry. OT-I or OT-II splenocytes were pulsed with specific peptides or PMA and ionomycin mixture with or without HSLs or TNF α plus cycloheximide. 24 hrs later, cells and supernatants were collected separately. For OT-I activation, cells were stained with CD69 and CD8. For OT-II activation, cells were stained with CD69 and CD4. Cell activation was measured by flow cytometry. All supernatants were detected for IL-2 secretion by ELISA.

[2] = molecular target: T1, TNFR1 (Mus musculus, UniProt P25118); assay: Quantum dot-based single particle tracking, TNFR1; format: cell-based
T1 construct: To track individual TNFR1 on the cell membrane; endogenous in cells
T1 sequence (P25118 30-454): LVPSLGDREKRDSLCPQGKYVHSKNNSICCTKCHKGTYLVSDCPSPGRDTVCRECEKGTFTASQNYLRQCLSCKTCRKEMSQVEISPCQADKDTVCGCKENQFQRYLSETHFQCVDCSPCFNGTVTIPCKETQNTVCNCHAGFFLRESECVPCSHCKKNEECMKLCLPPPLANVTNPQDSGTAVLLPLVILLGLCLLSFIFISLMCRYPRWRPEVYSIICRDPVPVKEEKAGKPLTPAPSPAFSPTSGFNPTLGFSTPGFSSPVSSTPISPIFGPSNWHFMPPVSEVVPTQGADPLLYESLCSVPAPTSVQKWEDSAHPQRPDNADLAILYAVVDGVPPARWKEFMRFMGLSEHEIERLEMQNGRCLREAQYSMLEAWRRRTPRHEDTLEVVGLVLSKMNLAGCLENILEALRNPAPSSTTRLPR
Method: To track individual TNFR1 on the cell membrane, anti-TNFR1 IgG (was first papain digested to yield a Fab fragment. The Fab was then conjugated with biotin through the unique —SH at its C terminal. To prepare anti TNFR1 Fab QD conjugates, a solution of 0.7 nM anti TNFR1—Fab-biotin in 1 ml of DMEM was added drop-wise to 1 ml of 2 nM QD 605-streptavidin conjugate. Cell monolayers (50% confluent) previously serum starved for 1 hr were treated with 3OC12 HSL or left untreated and incubated with […] of the final anti TNFR1-Fab-QD solution at 25° C. for 2 min. The cells were then washed twice with PBS at 25° C., placed in serum-free medium, and loaded for imaging. For single-FcRγIIA tracking, Fc fragment was obtained by papain digestion of an anti-BSA IgG (Sigma Aldrich). Fc-QD conjugate was produced as described before. Cos-1 cells were transiently transfected with Fcγ RIIA plasmid, 24 hrs later, cells were stimulated with 3OC12 HSL or left untreated and incubated with […] of the final Fc-QD solution at 25° C. for 2 min. Quantum dot-labeled cells were imaged in TIRF mode. The fluorescence was excited at 488 nm and gated by a band-pass filter (575-640, Carl Zeiss). The excitation power was about 2 mW measured after the objective. Movies of 400 frames were acquired for each sample at a full-frame rate of 17 Hz. Individual trajectories were constructed by Utrack written in Matlab. Diffusion coefficient and plot area were calculated by customized programs written with Matlab. For motion pattern determination by MSD-t analysis 5: linear, simple Brownian diffusion; open-up parabolic, directed diffusion; open-down parabolic, restricted diffusion; and near zero, stationary.

[3] = molecular target: T2, TNFR1 (1-293) mutant (Homo sapiens, UniProt P19438); assay: Single molecule photo-bleaching step counting (MSFQ), TNFR1 in HELA cells; format: cell-based
T2 construct: human TNFR1 (1-293) mutant was amplified from human TNFR1 with specific primers and cloned into peGFP-N1 vector; expressed in transfected cells; host or cells: HeLa cells
T2 sequence (P19438 30-293): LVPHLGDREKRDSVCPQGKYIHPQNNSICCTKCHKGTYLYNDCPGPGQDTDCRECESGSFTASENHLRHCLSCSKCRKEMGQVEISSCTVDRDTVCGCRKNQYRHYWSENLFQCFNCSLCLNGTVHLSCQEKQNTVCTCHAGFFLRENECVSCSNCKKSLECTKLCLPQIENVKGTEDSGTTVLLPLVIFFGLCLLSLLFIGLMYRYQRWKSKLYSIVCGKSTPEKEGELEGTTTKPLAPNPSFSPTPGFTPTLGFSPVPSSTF
Description: Then the cells were stimulated with HSLs, TNF α, or left untreated, and washed twice with PBS and fixed with 4% paraformaldehyde before imaging. GFP was excited at 488 nm with a laser power of 5 mW measured after the laser passing through the objective. […] The EM gain of the EMCCD camera was set at 300. Movies of 400 frames were acquired for each sample at a full-frame rate of 10 Hz. For imaging analysis, the background fluorescence was firstly subtracted from the movie acquired from the fixed cells using the rolling ball method in Image J software, and regions of interest on movies were selected manually according to the outline of cells. To analyze the bleaching steps, the fluorescence time courses of each fluorescent spots were first constructed by Image J plugin and bleaching steps were then counted manually.

[4] = test system: mouse splenocytes; assay: AnnexinV and PI staining, B6 splenocytes; format: cell-based
Method: as §1
(§2) In order to verify TNFR1-FADD-caspase8-caspase3 pathway inhibitor can block immunocyte apoptosis caused by 3OC12-HSL clinically. The inventors use a clinical version of caspase inhibitor Emricasan as a test. […] To be specific, in a 12 plate, THP-1 cells were cultured with indicated concentrations of 3OC and Emricasan. After 1 hr, cells were collection for flow cytometric analysis of AnnexinV and PI. […] In FIG. 17b, live cell percentage of different treatment were enumerated by flow cytometry. Bar graphs of live cell percentage are depicted by mean±SEM. Then samples prepared as in FIG. 17a and FIG. 17b were used for WB analysis for the activation (cleavage) of Caspase 8 and 3. […]

[5] = test system: THP-1 cell line; assay: Annexin V/PI apoptosis detection, THP-1; format: cell-based, human; conditions: THP-1, 3OC plus Emricasan, 1 hr, AnnexinV and PI
Method: as §1, §2

[6] = test system: Caspase 8 and 3; assay: WB analysis of Caspase 8 and 3 cleavage in THP-1; format: cell-based, human; conditions: THP-1, 1 hr and 2 hr
Method: In order to verify TNFR1-FADD-caspase8-caspase3 pathway inhibitor can block immunocyte apoptosis caused by 3OC12-HSL clinically. The inventors use a clinical version of caspase inhibitor Emricasan as a test. […] To be specific, in a 12 plate, THP-1 cells were cultured with indicated concentrations of 3OC and Emricasan. After 1 hr, cells were collection for flow cytometric analysis of AnnexinV and PI. […] In FIG. 17b, live cell percentage of different treatment were enumerated by flow cytometry. Bar graphs of live cell percentage are depicted by mean±SEM. Then samples prepared as in FIG. 17a and FIG. 17b were used for WB analysis for the activation (cleavage) of Caspase 8 and 3. […] In FIG. 17c, the incubate time of the left panel is 1 hr, and the […] panel is 2 hr. (Casp 8: Caspase 8, Cld Casp 8: Cleaved-Caspase 8, Casp 3: Caspase 3, Cld Casp 3: Cleaved-Caspase 3). […] Furthermore, the inventors use B6 splenocytes (separated from C57BL/6 spleen) as the test.

## Z-VAD
[1]
  effect on 3OC12 HSL cytotoxicity: reduced the cytotoxicity

## MβCD
[2]
  TNFR1 diffusion coefficient: higher diffusion coefficient
  TNFR1 x-y surface area coverage: larger area coverage

## TNFα
[3]
  TNFR1 trimerization (three step quenching): similarly occurred

## C[C@H](NC(=O)C(=O)Nc1ccccc1C(C)(C)C)C(=O)N[C@@H](CC(=O)O)C(=O)COc1c(F)c(F)cc(F)c1F [Emricasan]
[4]
  blocking of 3OC12-HSL's apoptosis: good effect in blocking 3OC12-HSL's apoptosis
[5]
  blocking of 3OC12-HSL's apoptosis: good effect in blocking 3OC12-HSL's apoptosis
[6]
  blocking of Caspase 8 and 3 cleavage: has effect in blocking 3OC12-HSL's apoptosis mediated by Caspase

## CCCCCC(=O)CC(=O)N[C@H]1CCOC1=O [3-oxo-C8]
[3]
  TNFR1 trimerization (three step quenching): failed to increase
